Data as given in patent US20070207537A1, “Bioreactor” (priority 2004, published 2007).

System: Human mesnchymal stem cells
Experiment: Alamar Blue toxicity assay in perfused microbioreactor culture
Type: cell-based
Conditions: 250 ng/ml, read at day 3 and day 7, FIG. 3
Protocol: Human mesnchymal stem cells were suspended in the α Modified Eagle's Medium (MEM) at the cell density of 10^4/ml. A 50 μl of cell suspension was introduced to each of the microbioreactors and kept at 37° C. After 4 h, the cell was seen to attach to the surface of the microbioreactor under microscope. During culture, αMEM supplemented with 15% FBS, 2% antibiotics/antimycotics and with different concentrations of tested drugs was used. The chemicals used were Trimethoprim and Pyrimethamine, which are known to be toxic to cells. The concentrations of the drug were 100 ng/ml and 250 ng/ml. The flow rate was 0.025 ml/h. Alamar Blue was used to do toxicity assay, which simply indicates the cell metabolity.
The samples from 3 days of culture with drug, 7 days of culture with drug and 3 days of culture without drug and further 4 days culture with drug were incubated with culture medium supplemented with Alamar Blue at day 3 and day 7, respectively for 4 h. Then 100 μl of culture medium was transferred to 96-well plate to read using microplate reader at the excitation wavelength of 530 nm and emission wavelength of 590 nm. Toxicity was shown as the ratio of reading from untreated with drug and from treated with drug, see FIG. 3. The toxicity was increased with culture time with drug. No significant different in toxicity between the two concentrations of drug in the test.

## CCc1nc(N)nc(N)c1-c1ccc(Cl)cc1 [Pyrimethamine]
  Toxicity (ratio of reading from untreated with drug and from treated with drug): dramatic increase in toxicity
